BindingDB's records for doi:10.1016/j.ejmech.2022.114789 (Sichuan University, 2022)

Biological target: T1, Catenin beta-1 (Homo sapiens, UniProt P35222)
T1 sequence (P35222 whole entry): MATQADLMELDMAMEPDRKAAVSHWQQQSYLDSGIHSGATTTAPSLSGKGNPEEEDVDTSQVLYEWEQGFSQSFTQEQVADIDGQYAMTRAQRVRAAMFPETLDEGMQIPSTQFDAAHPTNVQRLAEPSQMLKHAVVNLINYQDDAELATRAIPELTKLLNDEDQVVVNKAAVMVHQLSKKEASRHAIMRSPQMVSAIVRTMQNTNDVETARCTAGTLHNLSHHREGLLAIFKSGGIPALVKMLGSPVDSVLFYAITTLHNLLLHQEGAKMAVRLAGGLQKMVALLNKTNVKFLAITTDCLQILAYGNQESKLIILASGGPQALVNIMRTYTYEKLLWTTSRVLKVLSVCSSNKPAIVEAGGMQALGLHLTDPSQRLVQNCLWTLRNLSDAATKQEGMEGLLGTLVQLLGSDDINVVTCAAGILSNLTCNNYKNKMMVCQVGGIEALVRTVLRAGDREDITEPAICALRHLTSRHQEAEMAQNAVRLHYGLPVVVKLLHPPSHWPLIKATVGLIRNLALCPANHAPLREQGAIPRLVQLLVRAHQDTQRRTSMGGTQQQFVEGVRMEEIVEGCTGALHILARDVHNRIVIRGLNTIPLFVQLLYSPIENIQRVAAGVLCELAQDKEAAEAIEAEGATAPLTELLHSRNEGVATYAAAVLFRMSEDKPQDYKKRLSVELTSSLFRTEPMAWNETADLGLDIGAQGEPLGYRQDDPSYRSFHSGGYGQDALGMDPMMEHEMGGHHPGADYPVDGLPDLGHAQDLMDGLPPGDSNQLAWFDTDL
Assay: Inhibition of His6-tagged human beta-Catenin (138 to 686 residues)/biotinylated human BCL9 (350 to 375 residues) protein-protein interaction assessed as inhibition constant by AlphaScreen competitive assay

Compound O=C(Nc1ccc(O[C@H]2CCNC2)c(-c2ccc(F)cc2)c1)c1ccc(O[C@H]2CCNC2)c(-c2ccc(F)c(F)c2)c1 has a Ki of 2100 nM.
